Key:
[1] = Cilengitide pharmacokinetic profile in plasma during cycle 1; type: in vivo, human; conditions: PFE + CIL1W and PFE + CIL2W groups
R/M-SCCHN patients = conditions: ≤2000 mg cilengitide plus PFE, phase I part; cited from earlier work

In the case of `CC(C)[C@H]1C(=O)N[C@@H](CCCN=C(N)N)C(=O)NCC(=O)N[C@@H](CC(=O)O)C(=O)N[C@H](Cc2ccccc2)C(=O)N1C` [cilengitide, Cilengitide], the “Influence of the different cilengitide dosing on cetuximab exposure” value [1] is given as “no clinically relevant influence” and the “Dose-limiting or unexpected toxicities” value (R/M-SCCHN patients) is given as “no dose-limiting or unexpected toxicities”.

— article PMC3933250 (Annals of Oncology, 2014)
